≈ marks a conversion by molar mass, not a printed value. Some results are limits rather than exact numbers.

For the series the following is noted: buffer; pH 7.4; 200.0 µM.
With `COc1ccc2c(c1)c(C(C)=O)c(C)n2-c1ccc(C(C)=O)cc1`, the kinetic solubility is under 0.7 µg/mL. As to `Nc1cnn(C2OC(CO)C(O)C2O)c(=O)n1` (centres undefined), the solubility (kinetic) is over 36.6 µg/mL.

`COc1nc2ccccc2nc1N1CCN(c2ccc(F)cc2)CC1` showed a kinetic solubility of under 0.2 µg/mL. The value for `O=C(c1cnc2nc3ccccc3n2c1)c1cc(F)ccc1O` was 9.2 µg/mL (≈ 29.9 µM). As for `Cc1nc(/C(N)=N/OC(=O)c2c(-c3ccccc3Cl)noc2C)cs1`, the figure is 48.2 µg/mL (≈ 128 µM); as for `CC1CCCN(CC(=O)Nc2ccc(S(=O)(=O)N3CCCC3)cc2)C1` (centres undefined), over 54.8 µg/mL; as for `CN1CCN(S(=O)(=O)c2cccc(C(=O)N3CCN(c4ccccc4)CC3)c2)CC1`, 63.6 µg/mL (≈ 148 µM). As for `O=C(Oc1ccccc1)N1CCOCC1`, the figure is over 31.1 µg/mL; as for `O=C(CN1C(=O)NC2(CCCCC2)C1=O)NCc1ccc2c(c1)OCO2`, 42.8 µg/mL (≈ 119 µM); as for `O=C(CCNC(=O)c1ccccc1Cl)NCC1CCCO1` (centres undefined), over 46.6 µg/mL. `O=C(CCNC(=O)c1ccco1)Nc1cccc(C(F)(F)F)c1` came in with a kinetic solubility of over 48.9 µg/mL.

For `Cc1ccc(S(=O)(=O)/N=C(/Nc2nc(C)cs2)c2ccccc2)cc1`, the kinetic solubility came out at 8 µg/mL (≈ 21.5 µM). As for `CC(C)Oc1cc(C(=O)NC2CCCCC2)c2ccccc2n1`, the figure is 1.4 µg/mL (≈ 4.48 µM); as for `O=C(NCC(=O)N1CCN(c2ccccc2F)CC1)c1ccco1`, over 49.7 µg/mL. `CCOc1ccc2ccccc2c1C1NC(=O)N(C)C(C)=C1C(=O)OCCOC` (centres undefined) displayed a kinetic solubility of 1.9 µg/mL (≈ 4.77 µM). The compound `CCOc1ccc(OCCCC(=O)N(C)CC(=O)Nc2ccccc2Br)cc1` had a solubility (kinetic) of 5.6 µg/mL (≈ 12.5 µM). The value for `CCCn1c(C(O)c2ccc(C)cc2)nc2ccccc21` (centres undefined) was 15.9 µg/mL (≈ 56.7 µM); that for `CCS(=O)(=O)N1CCN=C1SCc1cccc(F)c1` was over 45.4 µg/mL. As for `COc1cccc(S(=O)(=O)c2nc(C)c3c(n2)CCC3)c1`, the figure is over 45.7 µg/mL. For `O=C(CSc1ccc(F)cc1)N1CCOCC1`, the solubility (kinetic) was over 38.3 µg/mL. As for `COc1cc2c(cc1OC)C(COc1ccc(C(C)C)cc1)NCC2` (centres undefined), the figure is 35.1 µg/mL (≈ 103 µM); as for `O=C(CCCN1C(=O)c2ccccc2C1=O)NCCCn1ccnc1`, 49.5 µg/mL (≈ 145 µM); as for `CC(=O)N1c2ccccc2C2(C)C(C1(C)C)C2(Cl)Cl` (centres undefined), 6.1 µg/mL (≈ 20.5 µM). The value for `Cc1ccc(Cl)c(Nc2ccccc2C(=O)[O-])c1Cl.[Na+]` was over 47.7 µg/mL; that for `O=C(COC(=O)c1ccc[nH]c1=O)NCCc1ccc(F)cc1` was 44.6 µg/mL (≈ 140 µM). As for `Cc1ccc(S(=O)(=O)N2CCN(C(=O)CNC(=O)c3ccc(Cl)cc3)CC2)cc1`, the figure is 8.1 µg/mL (≈ 18.6 µM); as for `CCCC1(CCC)NC(=O)N(CC(=O)N2CCc3ccccc32)C1=O`, over 51.5 µg/mL; as for `CN1CCN(C(=S)NC(=O)c2ccccc2Cl)CC1`, over 44.7 µg/mL. In turn, `CCOC(=O)NC(=S)Nc1ccc(OC)cc1` registered a kinetic solubility of 25.6 µg/mL (≈ 101 µM). As for `Cc1ccc(-n2c(C)nnc2SC(C)C(=O)N2CCCC2)cc1` (centres undefined), the figure is over 49.6 µg/mL; as for `CN(C)/C=C/C(=O)c1c(F)cccc1F`, 31.4 µg/mL (≈ 149 µM). The value for `CN(C)C(=S)Nc1ccc(Cl)cc1` was over 32.2 µg/mL; that for `COC(=O)Cc1nc(NC(=O)c2cccs2)sc1C` was over 44.5 µg/mL.

In turn, `COc1ccccc1N1CCN(Cc2ccc(C(=O)O)cc2)CC1` showed a solubility (kinetic) of 42.2 µg/mL (≈ 129 µM). The value for `Cc1ccnc(NC(=O)CNC(=O)c2ccccc2)c1` was over 40.4 µg/mL. As for `O=C(Cc1ccccc1)NCC(=O)N1CCN(Cc2cccc(Cl)c2)CC1`, the figure is over 57.9 µg/mL; as for `CCCOc1nc(C)cc(COC)c1C(N)=O`, over 35.7 µg/mL; as for `Cc1ccc(CNC(=O)c2ccc(C)s2)cc1`, 19.2 µg/mL (≈ 78.3 µM). As for `CC(C)(Oc1ccc(Cl)cc1)C(=O)N1CCN(C(=O)c2ccco2)CC1`, the figure is over 56.5 µg/mL. On to `O=C(COC(=O)c1cccnc1Cl)NC12CC3CC(CC(C3)C1)C2`, for which the solubility (kinetic) was 50.1 µg/mL (≈ 144 µM). The value for `CCOC(=O)C1=C(O)/C(=C\c2ccc(O)c(OCC)c2)N=C1C` was 36.1 µg/mL (≈ 114 µM); that for `O=C(Nc1ccccc1C(=O)N1CCCCC1)NC1CCCCC1` was over 49.4 µg/mL; that for `Cc1ccc(N2CC(C(=O)Nc3cc(C)on3)CC2=O)c(C)c1` (centres undefined) was over 47 µg/mL. The value for `CC(OC(=O)c1ccc2noc(-c3ccccc3)c2c1)C(N)=O` (centres undefined) was 46.3 µg/mL (≈ 149 µM). The value for `O=C(CS(=O)(=O)c1c[nH]c2ccccc12)N1CCCCCC1` was over 48.1 µg/mL; that for `O=C(Nc1cccc(Cl)c1)C1CC1c1ccccc1` (centres undefined) was 3.3 µg/mL (≈ 12.1 µM); that for `Cc1cc2c(NCc3ccccc3)ncnc2s1.Cl` was 41.7 µg/mL. For `C/C=C/C=C/C(=O)OC(C)C(=O)Nc1cc([N+](=O)[O-])ccc1OC` (centres undefined), the kinetic solubility came out at 18 µg/mL (≈ 53.8 µM). As for `CCN(CC)CCC(=O)c1ccc(F)cc1.Cl`, the figure is over 39 µg/mL.

`Cc1cccc(NC(=O)N2CCCc3ccccc32)c1C` came in with a kinetic solubility of 13.2 µg/mL (≈ 47.1 µM).

In turn, `CCN(CC)c1ccc(C(=O)c2cnc(/N=C/N(C)C)s2)cc1` registered a solubility (kinetic) of 48.6 µg/mL (≈ 147 µM). As for `CCN(CC)c1ccc(C(=S)NCc2ccccc2)cc1`, the figure is 0.5 µg/mL (≈ 1.68 µM); as for `CN(Cc1ccccc1F)C(=O)c1ccccc1Sc1ccccc1C#N`, 17 µg/mL (≈ 45.2 µM). As for `Cc1nc(N2CCCCCC2)c2ccccc2n1.Cl`, the figure is over 41.7 µg/mL.

Consider `O=C1NNC(=O)C1c1ccccc1`, for which the solubility (kinetic) was over 26.4 µg/mL. As for `Cc1cc(C)c(-c2c(O)c3ccccc3n(C)c2=O)c(C)c1`, the figure is over 44 µg/mL; as for `CNC(=O)OCCSCCS(=O)(=O)c1ccc(Cl)cc1`, 16.6 µg/mL (≈ 49.1 µM); as for `Cn1c(O)c(C=Nc2ccc(F)cc2)c(=O)[nH]c1=O`, 11.9 µg/mL (≈ 45.2 µM).

In turn, `NC(=O)CSc1nnc(-c2ccco2)n1-c1ccccc1` showed a solubility (kinetic) of over 45.1 µg/mL.

For the compound `CC1(C)c2ccccc2-n2c1cc1oc(=O)cc(O)c1c2=O`, the kinetic solubility stood at 35.6 µg/mL (≈ 121 µM). The value for `CCCSc1nsc(NC(=O)CCC)n1` was 10.8 µg/mL (≈ 44 µM); that for `CCN(CC)c1ccc(S(=O)(=O)N2CCOCC2)cc1NC(=O)Nc1ccccc1` was 2.2 µg/mL (≈ 5.09 µM); that for `C/C=C/C(=O)OCC(=O)Nc1ccc(OC)c(OC)c1` was over 41.9 µg/mL. As for `CCOC(=O)c1cnc(SC)nc1N1CCCC1`, the figure is over 40.1 µg/mL; as for `COc1ccc(/C=C/C(=O)NC2CCS(=O)(=O)C2)cc1` (centres undefined), over 44.3 µg/mL; as for `Cc1cccc(C)c1OC(=O)Cc1ccccc1[N+](=O)[O-]`, 1.8 µg/mL (≈ 6.31 µM).

The compound `COc1cc2[nH]c(=S)n(C3CC3)c(=O)c2cc1OC` returned a solubility (kinetic) of 7.6 µg/mL (≈ 27.3 µM). The value for `COc1ccc(NC(=O)c2ccc(NC(=O)COC(=O)c3cnc(C)cn3)cc2)cc1` was 9.1 µg/mL (≈ 21.6 µM). The value for `N#CCSc1nc2ccccc2c(=O)n1CC1CCCC1` was 0.8 µg/mL (≈ 2.67 µM). The value for `Cc1ccc([N+](=O)[O-])c(OCc2ncc(Cl)n2C)c1` was 9.8 µg/mL (≈ 34.8 µM); that for `CCCS(=O)(=O)c1cscc1NC(=O)c1c(-c2c(F)cccc2Cl)noc1C` was 0.9 µg/mL (≈ 2.03 µM). `Cc1nn(C)c(Cl)c1/C=N/OC(=O)c1ccccc1` registered a kinetic solubility of over 41.7 µg/mL. The value for `CC(C)NC(=O)COC(=O)c1ccc(Cl)c(S(N)(=O)=O)c1` was over 50.2 µg/mL. The value for `CCOCCCNC(=O)/C(C#N)=C/c1ccc([N+](=O)[O-])o1` was 24 µg/mL (≈ 81.8 µM); that for `C=CCOC(=O)Cn1cnc2c(sc3nc(C)cc(C)c32)c1=O` was 3.2 µg/mL (≈ 9.72 µM). As for `Cc1ccc(C(=O)NC2CCCc3ccccc32)cc1[N+](=O)[O-]` (centres undefined), the figure is 9.3 µg/mL (≈ 30 µM); as for `N#C/C(=C\c1ccc(F)c(Cl)c1)S(=O)(=O)c1ccccn1`, 44 µg/mL (≈ 136 µM); as for `Cc1cccc(C)c1NC(=O)COC(=O)c1cc(S(=O)(=O)Nc2ccc(Cl)cc2)ccc1O`, 11.5 µg/mL (≈ 23.5 µM).

`Cc1ccc(S(=O)(=O)NC2CCCC2)cc1C(N)=O` yielded a kinetic solubility of over 42.4 µg/mL.

The compound `CC1=CC(C)(C)Nc2ccc(OC(=O)CN3C(=O)c4cccc5cccc(c45)C3=O)cc21` registered a solubility (kinetic) of 56.3 µg/mL (≈ 132 µM). As for `O=c1[nH]c2ccccc2nc1CCc1ccccc1`, the kinetic solubility came out at 1.4 µg/mL (≈ 5.59 µM). The value for `COc1ccc(C(=O)OCC(=O)NC2CCCCCCC2)cc1OC` was 29 µg/mL (≈ 83 µM). As for `CC(=O)c1ccc(N2CCN(c3ncccn3)CC2)cc1`, the figure is 7.7 µg/mL (≈ 27.3 µM); as for `CN(CCOC(=O)/C=C/c1ccco1)Cc1ccccc1`, over 42.8 µg/mL; as for `CC(=O)Nc1ccc(S(=O)(=O)NCCCc2ccccc2)cc1`, over 49.9 µg/mL. As for `NC(=O)c1cc[n+](Cc2ccc([N+](=O)[O-])cc2)cc1.[Br-]`, the figure is over 50.7 µg/mL. The compound `N#CC(C(N)=O)=C1CCCCC1` yielded a solubility (kinetic) of over 24.6 µg/mL.

The compound `CCOC(=O)C1Sc2ccccc2NC1=O` (centres undefined) came in with a kinetic solubility of over 35.6 µg/mL. Take `CCOc1ccc(NC(=O)COC(=O)Cn2cnc3ccccc32)cc1`: the kinetic solubility worked out at 19.9 µg/mL (≈ 56.3 µM). The value for `C=CCn1c(COc2ccccc2OC)nc2ccccc21` was 10.2 µg/mL (≈ 34.7 µM); that for `Cc1nc2ccc(NC(=O)c3cccc(S(=O)(=O)N4CCOCC4)c3)cc2s1` was 6.2 µg/mL (≈ 14.8 µM); that for `CCC(C)C(NC(N)=O)C(=O)NC1CCC(C)CC1` (centres undefined) was 34.2 µg/mL (≈ 127 µM). As for `O=C(Nc1ccc2cccnc2c1)c1ccc(Br)cc1`, the figure is 0.4 µg/mL (≈ 1.22 µM); as for `Cc1csc(NC(=O)c2cnc3ccccc3n2)n1`, 12.5 µg/mL (≈ 46.2 µM). The value for `O=C(COc1ccccc1)NCC(=O)N1CCCCCC1` was over 43.6 µg/mL. `O=C(NC(=S)Nc1cccc2cnccc12)c1ccccc1` gave a kinetic solubility of 1.2 µg/mL (≈ 3.9 µM). As for `CC(=O)c1ccc(NC(=O)c2cc3ccccc3o2)cc1`, the figure is 1 µg/mL (≈ 3.58 µM). `CSc1ccccc1C(=O)C1CCCN(Cc2ccccn2)C1` (centres undefined): the kinetic solubility was 44.8 µg/mL (≈ 137 µM).

`Nc1cc(S(=O)(=O)Nc2ccc(Cl)cc2)ccc1N1CCOCC1` returned a kinetic solubility of over 55.2 µg/mL.

In turn, `O=C1ON=C(c2ccccc2)/C1=C/c1ccc(O)cc1` displayed a kinetic solubility of over 39.8 µg/mL. Consider `CCC1CCCCN1C(=S)NC(=O)c1ccco1` (centres undefined), for which the solubility (kinetic) is over 40 µg/mL. The value for `CCCOc1ccc(/C=C/C(=O)N2CCOCC2)cc1` was over 41.3 µg/mL; that for `C#Cc1ccc(C(=O)NCc2ccc(N3CCCC3=O)cc2)cc1` was 14.6 µg/mL (≈ 45.9 µM); that for `N/C(=N\O)c1ccc(Cl)cc1Cl` was 30 µg/mL (≈ 146 µM).

What is called solubility (kinetic) is the concentration staying in solution when a stock, usually in DMSO, is diluted into the medium.

These data come from PubChem BioAssay AID1996.
